Measurements: patent publication US5885786A, “Methods for screening of substances for inhibition of multidrug resistance” (priority 1996, dated 1999)
Entries after “also recorded” stand apart in the source; their conditions may differ.

Experiments:
[1] = system: glycosylceramide formation in MCF-7-AdrR cells; experiment: Inhibition of [3H]glycosylceramide formation in MCF-7-AdrR cells (TLC, liquid scintillation); format: cell-based; settings: for inhibition of glycosylceramide synthesis (in words): MCF-7-AdrR cells
Protocol: FIG. 9. […] Values represent the mean of determinations from three separate experiments, and are calculated as the percent glycosylceramide in the total lipid tritium extract.
FIG. 11A and FIG. 11B. […] FIG. 11: A Autoradiography. […] For autoradiography equal aliquots by volume of total lipid extract were applied to TLC plates. […] [^3 H]Glycosylceramide, visualized in panel A, was quantitated as described in the legend to FIG. 9. Each value represents mean±SEM of determinations from three separate experiments.
FIG. 12. […] [^3 H]Glycosylceramide was quantitated as described in the legend to FIG. 9. Results represents the mean±SEM of determinations from three separate experiments.
MCF-7 cells, grown in medium containing 10% FBS, were switched to media containing 5% FBS. Cell lipids were radiolabeled by adding [^3 H]serine (2.0 μCi/ml), [^3 H]palmitic acid (1.0 μCi/ml), or [^3 H]galactose (1.0 μCi/ml) to the culture medium for the indicated times. Other radiolabels can be substituted. Cells were then rinsed twice with PBS, pH 7.4, and 2 ml of ice-cold methanol containing 2% acetic acid was added. The cells were scraped free, transferred to glass test tubes (13×100 mm), and lipids were extracted by the addition of chloroform (2 ml) followed by water (2 ml). The resulting organic lower phase was withdrawn and evaporated under a stream of nitrogen. Lipids were resuspended in 100 μL of chloroform/methanol (1:1, v/v), and aliquots were applied to TLC plates.
(§1) Lipid analysis was carried out by TLC using solvent system I: chloroform/methanol/ammonium hydroxide (40:10:1, v/v) for glycosylceramide separation, solvent system II: chloroform/methanol/water (60:40:8, v/v) for sphingoglycolipid separation, or solvent system III: chloroform/methanol/acetic acid/water (50:30:7:3, v/v) for sphingomyelin separation. For determination of ceramides, an aliquot of the chloroform-soluble lipids was base-hydrolyzed in 0.1N KOH in methanol for 1 h at 37° C., lipids were re-extracted, and separated by TLC using solvent system IV: hexane/diethyl ether/formic acid (60:40:1, v/v).
(§2) Radiochromatograms were sprayed with EN^3 HANCE, and exposed for 3-7 days for autofluorgraphy. TLC areas, aligned with bands on the autoradiographs or with iodine-stained commercial lipid standards, were scraped from the plate. Water (0.5 ml) was added to the plate scrapings followed by 4.5 ml of EcoLume counting fluid, and the samples were quantitated by liquid scintillation spectrometry.

[2] = system: human melanoma cell lines (M101, M10 and M24); experiment: Formation of glycosylceramide in human metastatic melanoma cell lines M101, M10 and M24; format: cell-based; settings: 5.0 μM tamoxifen, 24 h, FIG. 17
From the text: FIG. 17. […] Identical aliquots of total lipid extract were applied to TLC, and the plate was exposed for autoradiography.

MCF-7-AdrR cells [3] = experiment: Temporal pattern of tamoxifen influence on total lipid, glycosylceramide, sphingomyelin and ceramide metabolism; format: cell-based
Protocol: FIG. 13A, FIG. 13B and FIG. 13C. Temporal Pattern for the Influence of Tamoxifen on Total Lipid, Glycosylceramide, and Sphingomyelin Metabolism in MCF-7-AdrR Cells. Cells, preincubated in the absence or presence of tamoxifen (20 μM) for 30 min, were labeled by addition of 1.0 μCi/ml [^3 H]palmitic acid for the times shown using RPMI-1640 medium containing 5% FBS. At each time point, cultures were washed with PBS and lipids were extracted as described under Example I. Aliquots of the labeling medium were counted directly by liquid scintillation spectrometry to determine [^3 H]palmitic acid uptake and incorporation into total cell lipids (FIG. 13A). Glycosylceramide (FIG. 13B) and sphingomyelin (FIG. 13C) levels were evaluated by TLC using solvent system I and II, respectively, followed by quantitation of radiolabel in the relevant regions as detailed in Example I. Results are the mean±SEM of duplicate determinations from two separate experiments.
FIG. 14A and FIG. 14B. Effect of Tamoxifen on Ceramide Synthesis and Glycosylation in MCF-7-AdrR Cells. FIG. 14: A Influence of tamoxifen on ceramide synthesis. The experiment was conducted as described in the legend to FIG. 13. Aliquots of the total lipid extract were based-hydrolyzed as described in Example I, separated by TLC using solvent system IV, and the resolved [^3 H]ceramide was quantitated by liquid scintillation spectrometry. Results are the mean±SEM of duplicate determinations from two separate experiments. FIG. 14B: Effect of tamoxifen on glycosylation of C6 -ceramide. Cells, in 100×20 mm culture dishes, were preincubated without or with 5.0 μM tamoxifen for 30 min, followed by incubation without or with 5.0 μM C6 -ceramide:BSA (prepared at a 1:1 molar ratio) for an additional 30 min. Cells were labeled thereafter with 1.0 μCi/ml [^3 H]galactose for 24 h. [3H]Galactose uptake was determined and found to be similar in all experimental points (1.0×10^6 cpm/dish). The total extracted lipid was applied to TLC separation and [^3 H]glycosphingolipids were analyzed as described in the legend to FIG. 10. The autoradiography of a representative chromatogram is shown.
as §1, §2

MCF-7-AdrR cells [4] = experiment: Cell proliferation (MTS) assay: adriamycin toxicity and chemosensitization; settings: for effect on adriamycin toxicity / chemosensitization (in words): 5.0 μM tested drug + adriamycin, 72 h, FIG. 15A, 16B
From the text: FIG. 15A and FIG. 15B. […] FIG. 15B: Glycosylceramide levels in MDR Cells following drug treatment. […] In order to avoid differences in [^3 H]glycosylceramide values which account for cell death, the same amount of total radioactive lipid from each sample was applied to TLC separation.
FIG. 16A and FIG. 16B. […] FIG. 16A: Effect of PPMP on cellular glycosylceramide levels. […] [^3 H]Glycosylceramide was quantitated as described in the legend to FIG. 9.
Vehicle (acetone, ethanol) was always added to control (minus drug) wells. The cytotoxic activity of a drug was determined using the Promega CellTiter 96™ AQueous MTS cell proliferation assay kit. Each experimental point was performed in six replicates. MTS/PMS solution (20 μl/well) was aliquoted into all wells, and the cells were incubated for 2-3 h, or until an O.D. of 0.9-1.0 was obtained as a highest reading. Thereafter, absorbence at 490 nm was recorded using an ELISA plate reader (Molecular Devices, San Diego, Calif.).

P-glycoprotein = settings: literature; cited from earlier work

Question: What does the source list for `CC/C(=C(\c1ccccc1)c1ccc(OCCN(C)C)cc1)c1ccccc1` [tamoxifen]?
Answer: inhibition at 5 µM ([1]; 5.0 μM drug, 24 h, MCF-7-AdrR, FIG. 11B, read-out: inhibition of glycosylceramide formation (cpm tritium)): 65%; IC50 ([1]; 24 h incubation with [3H]palmitic acid, FIG. 12, read-out: half-maximal inhibition (IC50) of cellular [3H]glycosylceramide formation): 1000 nM; maximal inhibitory effect on glycosylceramide formation (in words) ([1]; FIG. 12): highest maximal effect; inhibition of glycosylceramide synthesis (in words) [1]: strongly inhibited; inhibition of glycosylceramide synthesis (in words) ([1]; listed as Tamoxifen): drastically inhibit; inhibition of glucosylceramide formation (in words) [2]: inhibition of glucosylceramide formation; inhibition of glycosylceramide synthesis within 4 h (in words) (MCF-7-AdrR cells [3]; tamoxifen 20 μM, 4 h time frame, FIG. 13B): almost completely inhibited; uptake and incorporation of [3H]palmitic acid (in words) (MCF-7-AdrR cells [3]; tamoxifen 20 μM, FIG. 13A): very similar; onset of glycosylceramide formation inhibition (MCF-7-AdrR cells [3]; tamoxifen 20 μM, FIG. 13B): 15 min; time of half-maximal influence on glycosylceramide formation (MCF-7-AdrR cells [3]; tamoxifen 20 μM, FIG. 13B): 45 min; sphingomyelin synthesis (in words) (MCF-7-AdrR cells [3]; tamoxifen 20 μM, FIG. 13C): not influenced; also recorded: not altered; level of ceramide / ceramide synthesis (in words) (MCF-7-AdrR cells [3]; tamoxifen, FIG. 14A): remained unchanged; also recorded: very similar; effect on adriamycin toxicity / chemosensitization (in words) (MCF-7-AdrR cells [4]): shifted to lower concentrations; also recorded: very potent in cell killing; effect on adriamycin toxicity / chemosensitization (in words) (MCF-7-AdrR cells [4]; listed as Tamoxifen): potently sensitized; effect of the substance alone on cell survival (in words) (MCF-7-AdrR cells [4]; MCF-7-AdrR, alone): not toxic; binding to P-glycoprotein (in words) (P-glycoprotein): direct binding to P-glycoprotein
